What is called EC50 is the midpoint of the concentration-response curve.

Structures are written as SMILES.

human LPAR1, sequence (Q92633 whole entry): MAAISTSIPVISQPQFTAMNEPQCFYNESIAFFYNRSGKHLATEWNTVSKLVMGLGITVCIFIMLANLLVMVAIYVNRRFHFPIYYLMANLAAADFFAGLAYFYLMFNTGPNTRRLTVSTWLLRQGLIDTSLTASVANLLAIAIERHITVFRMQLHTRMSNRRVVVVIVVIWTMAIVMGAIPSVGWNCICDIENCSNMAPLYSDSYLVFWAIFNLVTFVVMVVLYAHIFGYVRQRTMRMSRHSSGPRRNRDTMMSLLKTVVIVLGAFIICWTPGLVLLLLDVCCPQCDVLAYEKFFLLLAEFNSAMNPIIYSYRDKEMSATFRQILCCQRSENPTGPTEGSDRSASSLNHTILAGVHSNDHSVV

This assay addresses human LPAR1 (Homo sapiens (Human), UniProt Q92633). Description: LPAR1 intracellular calcium mobilization assay (antagonist mode, FLIPR). Type of assay: cell-based. As to conditions: CHO-K1 EDG2 cells expressing human LPAR1, LPA 18:2 at EC80 (100 nM), test compound 0.5 nM to 10 μM. For orientation: A change in cytosolic calcium serves as a functional read-out for many receptors and channels.
In the case of `C[C@@H](OC(=O)Nc1c(-c2ccc(NC(=O)C34CC(F)(C3)C4)cn2)nnn1C)c1cc(F)cnc1F` [Compound 163, (R)-1-(2,5-difluoropyridin-3-yl)ethyl (4-(5-(3-fluorobicyclo[1.1.1]pentane-1-carboxamido)pyridin-2-yl)-1-methyl-1H-1,2,3-triazol-5-yl)carbamate], the EC50 came out at 32.6 nM. On to `C[C@@H](OC(=O)Nc1c(-c2ccc(NC(=O)[C@@H]3CC3(F)F)cn2)nnn1C)c1cc(F)cnc1F` [Compound 164, (R)-1-(2,5-difluoropyridin-3-yl)ethyl (4-(5-((S)-2,2-difluorocyclopropane-1-carboxamido)pyridin-2-yl)-1-methyl-1H-1,2,3-triazol-5-yl)carbamate], for which the EC50 was 245 nM. On to `C[C@@H](OC(=O)Nc1c(-c2ccc(NC(=O)C3(C(F)F)CC3)cn2)nnn1C)c1cc(F)cnc1F` [Compound 165, (R)-1-(2,5-difluoropyridin-3-yl)ethyl (4-(5-(1-(difluoromethyl)cyclopropane-1-carboxamido)pyridin-2-yl)-1-methyl-1H-1,2,3-triazol-5-yl)carbamate], for which the EC50 amounted to 487 nM. To `C[C@@H](OC(=O)Nc1c(-c2ccc(NC(=O)C3(C(F)F)CC3)cn2)nnn1C)c1cc(F)cnc1Cl` [Compound 166, (R)-1-(2-chloro-5-fluoropyridin-3-yl)ethyl (4-(5-(1-(difluoromethyl)cyclopropane-1-carboxamido)pyridin-2-yl)-1-methyl-1H-1,2,3-triazol-5-yl)carbamate] belongs 238 nM.

As for `C[C@@H](OC(=O)Nc1c(-c2ccc(NC(=O)C34CC(C#N)(C3)C4)cn2)nnn1C)c1cc(F)cnc1Cl` [Compound 167, (R)-1-(2-chloro-5-fluoropyridin-3-yl)ethyl (4-(5-(3-cyanobicyclo[1.1.1]pentane-1-carboxamido)pyridin-2-yl)-1-methyl-1H-1,2,3-triazol-5-yl)carbamate], the EC50 was determined as 99.4 nM. To `C[C@@H](OC(=O)Nc1c(-c2ccc(NC(=O)C3(C#N)CC3)cn2)nnn1C)c1cc(F)cnc1Cl` [Compound 168, (R)-1-(2-chloro-5-fluoropyridin-3-yl)ethyl (4-(5-(1-cyanocyclopropane-1-carboxamido)pyridin-2-yl)-1-methyl-1H-1,2,3-triazol-5-yl)carbamate] belongs 16.2 nM; to `C[C@@H](OC(=O)Nc1c(-c2ccc(NC(=O)[C@@H]3C[C@H]3F)cn2)nnn1C)c1cccnc1F` [Compound 169, (R)-1-(2-fluoropyridin-3-yl)ethyl (4-(5-((1S,2R)-2-fluorocyclopropane-1-carboxamido)pyridin-2-yl)-1-methyl-1H-1,2,3-triazol-5-yl)carbamate], 191 nM. In the case of `C[C@@H](OC(=O)Nc1c(-c2ccc(NC(=O)C34CC(C(F)(F)F)(C3)C4)cn2)nnn1C)c1cccnc1F` [Compound 170, (R)-1-(2-fluoropyridin-3-yl)ethyl (1-methyl-4-(5-(3-(trifluoromethyl)bicyclo[1.1.1]pentane-1-carboxamido)pyridin-2-yl)-1H-1,2,3-triazol-5-yl)carbamate] it was 31.8 nM; in that of `C[C@@H](OC(=O)Nc1c(-c2ccc(NC(=O)C3CC(F)(F)C3)cn2)nnn1C)c1cccnc1F` [Compound 171, (R)-1-(2-fluoropyridin-3-yl)ethyl (4-(5-(3,3-difluorocyclobutane-1-carboxamido)pyridin-2-yl)-1-methyl-1H-1,2,3-triazol-5-yl)carbamate], 140 nM; in that of `C[C@@H](OC(=O)Nc1c(-c2ccc(NC(=O)C3(C#N)CC3)cn2)nnn1C)c1cccnc1F` [Compound 172, (R)-1-(2-fluoropyridin-3-yl)ethyl (4-(5-(1-cyanocyclopropane-1-carboxamido)pyridin-2-yl)-1-methyl-1H-1,2,3-triazol-5-yl)carbamate], 236 nM.

For `C[C@@H](OC(=O)Nc1c(-c2ccc(NC(=O)C34CC(F)(C3)C4)cn2)nnn1C)c1cccnc1F` [Compound 173, (R)-1-(2-fluoropyridin-3-yl)ethyl (4-(5-(3-fluorobicyclo[1.1.1]pentane-1-carboxamido)pyridin-2-yl)-1-methyl-1H-1,2,3-triazol-5-yl)carbamate], the EC50 was 181 nM. To `C[C@@H](OC(=O)Nc1c(-c2ccc(NC(=O)C34CC(C#N)(C3)C4)cn2)nnn1C)c1cccnc1F` [Compound 174, (R)-1-(2-fluoropyridin-3-yl)ethyl (4-(5-(3-cyanobicyclo[1.1.1]pentane-1-carboxamido)pyridin-2-yl)-1-methyl-1H-1,2,3-triazol-5-yl)carbamate] belongs 107 nM; to `Cc1ncc(F)cc1[C@@H](C)OC(=O)Nc1c(-c2ccc(NC(=O)C3CC(F)(F)C3)cn2)nnn1C` [Compound 175, (R)-1-(5-fluoro-2-methylpyridin-3-yl)ethyl (4-(5-(3,3-difluorocyclobutane-1-carboxamido)pyridin-2-yl)-1-methyl-1H-1,2,3-triazol-5-yl)carbamate], 35.4 nM; to `Cc1ncc(F)cc1[C@@H](C)OC(=O)Nc1c(-c2ccc(NC(=O)[C@@H]3C[C@H]3F)cn2)nnn1C` [Compound 176, (R)-1-(5-fluoro-2-methylpyridin-3-yl)ethyl (4-(5-((1S,2R)-2-fluorocyclopropane-1-carboxamido)pyridin-2-yl)-1-methyl-1H-1,2,3-triazol-5-yl)carbamate], 253 nM. To `Cc1ncc(F)cc1[C@@H](C)OC(=O)Nc1c(-c2ccc(NC(=O)C3(C#N)CC3)cn2)nnn1C` [Compound 177, (R)-1-(5-fluoro-2-methylpyridin-3-yl)ethyl (4-(5-(1-cyanocyclopropane-1-carboxamido)pyridin-2-yl)-1-methyl-1H-1,2,3-triazol-5-yl)carbamate] belongs 48.3 nM; to `Cc1ncc(F)cc1[C@@H](C)OC(=O)Nc1c(-c2ccc(NC(=O)C34CC(C#N)(C3)C4)cn2)nnn1C` [Compound 178, (R)-1-(5-fluoro-2-methylpyridin-3-yl)ethyl (4-(5-(3-cyanobicyclo[1.1.1]pentane-1-carboxamido)pyridin-2-yl)-1-methyl-1H-1,2,3-triazol-5-yl)carbamate], 140 nM. In the case of `Cc1ncc(F)cc1[C@@H](C)OC(=O)Nc1c(-c2ccc(NC(=O)C34CC(F)(C3)C4)cn2)nnn1C` [Compound 179, (R)-1-(5-fluoro-2-methylpyridin-3-yl)ethyl (4-(5-(3-fluorobicyclo[1.1.1]pentane-1-carboxamido)pyridin-2-yl)-1-methyl-1H-1,2,3-triazol-5-yl)carbamate] it was 46.5 nM. Take `Cc1ncc(F)cc1[C@@H](C)OC(=O)Nc1c(-c2ccc(NC(=O)[C@@H]3CC3(F)F)cn2)nnn1C` [Compound 180, (R)-1-(5-fluoro-2-methylpyridin-3-yl)ethyl (4-(5-((S)-2,2-difluorocyclopropane-1-carboxamido)pyridin-2-yl)-1-methyl-1H-1,2,3-triazol-5-yl)carbamate]: the EC50 was determined as 123 nM. To `CC(OC(=O)Nc1c(-c2ccc(NC(=O)C3(C#N)CC3)cn2)nnn1C)c1ccc(F)nc1Cl` (stereo not shown) [Compound 181, 1-(2-chloro-6-fluoropyridin-3-yl)ethyl (4-(5-(1-cyanocyclopropane-1-carboxamido)pyridin-2-yl)-1-methyl-1H-1,2,3-triazol-5-yl)carbamate] belongs 428 nM.
